From US9150617B2, “Immunoregulatory peptides and methods of use” (13 Therapeutics, Inc., priority 2009, dated 2015) come the findings set out here.

Data set [1] has as its system TNF-α secretion from RAW264.7 cells. In words: Inhibition of TNF-α secretion from RAW264.7 cells stimulated with CpG-ODN (ELISA). It is filed as cell-based, murine. Conditions: for activity vis-à-vis P13 (inhibition of TNF-α after stimulation of RAW264.7 cells with CpG): SAR, compared with P13; for Inhibition of TNF-α secretion (percent inhibition): 4 hours (Table 3). The method, then: (§1) RAW264.7 (murine monocyte/macrophage cells (American Type Culture Collection) were cultured at 37° C. in a 5% CO2 humidified incubator and grown in DMEM (Invitrogen Life Technologies) supplemented with 10% (v/v) heat-inactivated FCS, 1.5 mM L-glutamine, 100 U/ml penicillin, and 100 μg/ml streptomycin.
(§2) RAW264.7 cells were plated at 1.5×10^5 cells/well −3×10^5 cells/well in 48-well plates. After 24 hours, the cells were incubated with peptides at various concentrations at room temperature in triplicate either before, simultaneous with, or after activation with various PAMPs for 18 hours. Cell-free supernatants were analyzed for cytokines by ELISA, in quadruplicate. RAW264.7 cells were stimulated with either CpG-ODN (1 μg/ml or 1.25 μg/ml), LPS (about 1 ng/ml), Poly (I:C) (about 10 μg/ml), flagellin (about 5 ng/ml), or zymosan (about 10 μg/ml). Dose response curves were done with each PAMP to determine optimal stimulation concentration. For CpG-ODN stimulation, cells were incubated for 4 hours at 37° C., supernatants collected, and TNF-α measured by ELISA. Any cytokine involved in inflammatory disease mediated toll receptor signaling can be measured using similar assays.
The effect of several peptides on TNF-α secretion from RAW264.7 cells in response to stimulation by CpG-ODN was studied. Each peptide was initially tested at 3 concentrations, 37 μM, 22.2 μM, and 11.1 μM. […] The peptides were then tested at 11.1 μM, 7.4 μM, and 3.7 μM (Table 3). […] Cell viability was examined for each peptide at the concentrations tested for TNF-α inhibition.
(§3) Inhibition of TNF-α secretion by various T-peptides was examined. RAW264.7 cells were plated at 3×10^5 cells/well in 48-well plates. After 24 h the cells were incubated with peptide at various concentrations at room temperature in triplicate for 15 minutes and then stimulated with 1.25 ug/ml CpG-ODN or 1 ng/ml LPS. Cells were then incubated for 4 hours at 37° C., supernatants collected, and TNF-α measured by ELISA. Percent inhibition was calculated by comparing TNF-α secretion from cells incubated with peptide to control cells with no peptide treatment. The inhibition by peptides T3, T11, T21, T36, T37, T51 and T52 were compared to inhibition by an analogue of P13 having a sequence of nine arginine residues (SEQ ID NO: 379) at the C-terminus (P13-R^9; SEQ ID NO: 378). (Table 4).

The next data set relates to mouse middle ear. Kind of data set: Effects caused by peptide without added bacteria on mouse middle ear. It is filed as in vivo. Conditions: 10 μM, no bacteria, 3 days. The method, then:
Induction of otitis media: BALB/c (Bagg albino) mice, about 8-12 weeks of age, are anesthetized with a subcutaneous injection of xylazine & ketamine (about 0.1 mg/30 gm body weight) and their ears examined under the operating microscope to assure they are free of infection or perforation. One group of animals is injected with PBS (Phospho-buffered saline) in one ear and with about 10 μM of a peptide of Table 1 in the opposite ear, to determine the effect of peptide without added bacteria. A second group of animals receive about 5.0 μl of PBS plus heat-inactivated S. pneumoniae (about 10^9 CFU/ml) in one ear and about 5.0 μl of peptide (about 10 μM) plus heat-inactivated S. pneumoniae (about 10^9 CFU/ml) in the opposite ear. Injections are done through the tympanic membrane. Animals are killed about 3 days after bacterial injection and tissue is histologically processed to assess middle ear disease. Inflammation is quantified by measuring 1) area of fluid present in the middle ear; 2) number of cells in middle ear fluid; and 3) thickness of the tympanic membrane (TM) taken at a point away from the injection site. Data are obtained from mice (n=18) injected with PBS alone for each of the histological parameters measured, to serve as a control group.
To determine the effect of peptide without added bacteria, animals are injected in one ear with PBS alone, and the other ear with about 10 μM peptide. Paired t-tests are done comparing the effect of PBS alone with the effect of peptide for each of the three histological parameters: 1) area of fluid present in the middle ear; 2) number of cells in middle ear fluid; and 3) thickness of the tympanic membrane. […]
Five mice were injected in one ear with PBS and in the opposite ear with 10 μM peptide P13. Three days later the animals were killed, and the middle ears embedded, sectioned, stained and evaluated for fluid area, infiltrating cell number, and thickness of the tympanic membrane. […]

Data set [2] relates to TNF-α secretion from RAW264.7 cells. In words: Inhibition of TNF-α secretion from RAW264.7 cells stimulated with LPS (ELISA). It is filed as cell-based, murine. Conditions: LPS Stimulation, 1 ng/ml LPS. The method, then:
as §1, §2, §3
(In an ELISA, binding on a coated surface is turned into a signal by an enzyme label.)

Data set [3] deals with tympanic membrane of BALB/c mice. Kind of data set: Assay for crossing the tympanic membrane by FITC-labeled peptide. The class given is in vivo, mouse. Particulars: 10 μg/30 μl dropped onto ear with AOM, 10 minutes; fluorescent microscopy of middle ear fluid. The protocol:
Three BALB/c mice at 8-12 weeks of age were anesthetized with ketamine (100 mg/kg) and xylazine (20 mg/kg) prior to administration of bacteria. A ventral midline incision was made in the neck, and the bulla exposed after blunt dissection. The middle ear was inoculated through the bony wall with approximately 3.5 μl of a bacterial suspension (heat inactivated S. pneumoniae 10^10 CFU/ml) with a thin needle. Both the right and left ears received bacteria by bulla injection.
After 24 hours, animals received an otoscopic exam using an operating microscope. Mice were anesthetized as described above, and the tympanic membrane was inspected for the presence or absence of the following three criteria for acute otitis media (AOM): 1) middle ear effusion behind the tympanic membrane; 2) change in color of the tympanic membrane from clear to red or white (indicating inflammation and/or purulence in the middle ear); 3) change in position of the tympanic membrane from neutral to bulging or retracted.
Four ears met the criteria for AOM. FITC labeled peptide P13-R^9 (SEQ ID NO: 378) (10 μg/30 μl) was dropped onto the middle ear. The peptide was allowed to absorb for 10 minutes. After 10 minutes, the external ear canal was flushed twice, and blotted to get rid of any remaining peptide. […]

[4] abbreviates: 7.1 μM peptide, CpG stimulation, 1.25 ug/ml CpG-ODN.
Where [5] appears, read: 11.1 μM peptide, CpG stimulation, 1.25 ug/ml CpG-ODN.
Setting [6] is: 22 μM peptide, CpG stimulation, 1.25 ug/ml CpG-ODN.
Setting [7] is: 11.1 μM peptide, 1 ug/ml CpG-ODN, 4 hours (Table 2).
[8] abbreviates: 22.2 μM peptide, 1 ug/ml CpG-ODN, 4 hours.

Ends that are not written are not given here.

On to DIVKVTVYDCIRRRRRRRRR [T37-R^9], for which the “Percent Inhibition of TNF-α secretion” value is 46% in data set [1] (setting [4]), 87% in data set [1] (setting [5]) and 93% in data set [1] (setting [6]). Moreover, the “activity vis-à-vis P13 (inhibition of TNF-α after stimulation of RAW264.7 cells with CpG)” value in data set [1] is on record as “superior activity”.
The corresponding values for AIIKVYVYACIRRRRRRRRR [T52-R^9] are 97.8%, 99.2%, 100% and “superior activity”.
On to DIVKLTVYDCI [Peptide P13, DIVKLTVYDCI], for which, in the data set on mouse middle ear, the “difference between PBS-injected ear and P13-injected ear in cell number” value is “no differences”; the “difference between PBS-injected ear and P13-injected ear in fluid area” value was “no differences”; the “difference between PBS-injected ear and P13-injected ear in tympanic membrane thickness” value is “no differences”.
For the substance “TILLEEYFMYRGLLGLRIRRRRRRRRR [Peptide 104 (S20)-R^9]”, the “Inhibition of TNF-α secretion (percent inhibition)” value (shortened to “Inhibition … (percent inhibition)”) in data set [1] (7 μM peptide, 1 ug/ml CpG-ODN) amounted to 60%; in data set [1] (11 μM peptide, 1 ug/ml CpG-ODN) it was 74%. In addition, the “Percent Inhibition of TNF-α secretion” value in data set [1] (setting [7]) came to 74%; in data set [1] (setting [8]), 93%.
Take “ILLEEYFMYRGLLGLRIRRRRRRRRR [Peptide 105 (S21)-R^9]”: the “Inhibition … (percent inhibition)” value in data set [1] (7 μM peptide, 1 ug/ml CpG-ODN) is listed as 52%; in data set [1] (11 μM peptide, 1 ug/ml CpG-ODN), 62%. The “Percent Inhibition of TNF-α secretion” value in data set [1] (setting [7]) was found to be 62%; in data set [1] (setting [8]) it was 91%.
In the case of DIIKLTVYDCIRRRRRRRRR [T36-R^9], the “Percent Inhibition of TNF-α secretion” value is on record as 50% in data set [1] (setting [4]), 70% in data set [1] (setting [5]) and 82% in data set [1] (setting [6]). Besides, the “activity vis-à-vis P13 (inhibition of TNF-α after stimulation of RAW264.7 cells with CpG)” value in data set [1] is listed as “superior activity”.
For the substance “FTILLEEYFMYRGLLGLRIRRRRRRRRR [Peptide 103 (S19)-R^9]”, the “Inhibition … (percent inhibition)” value in data set [1] (7 μM peptide, 1 ug/ml CpG-ODN) was found to be 87%; in data set [1] (11 μM peptide, 1 ug/ml CpG-ODN) it was 93%. Further, the “Percent Inhibition of TNF-α secretion” value turned out to be 93% in data set [1] (setting [7]) and 99% in data set [1] (setting [8]).
Take DIVKLTVYACIRRRRRRRRR [T11-R^9]: the “Percent Inhibition of TNF-α secretion” value in data set [2] (7.4 uM peptide) was 68%; in data set [2] (11.1 uM peptide), 81%; in data set [2] (22.2 uM peptide), 91%. In addition, in data set [1], the “activity vis-à-vis P13 (inhibition of TNF-α after stimulation of RAW264.7 cells with CpG)” value is “superior activity”.
Take DIVKLYVYDCIRRRRRRRRR [T21-R^9]: the “Percent Inhibition of TNF-α secretion” value in data set [1] (setting [4]) worked out at 69%; in data set [1] (setting [5]), 90%; in data set [1] (setting [6]), 98%. Besides, the “activity vis-à-vis P13 (inhibition of TNF-α after stimulation of RAW264.7 cells with CpG)” value in data set [1] is “superior activity”.
Consider “LLEEYFMYGLLGLRIRRRRRRRRR [Peptide 106 (S22)-R^9]”, for which the “Inhibition … (percent inhibition)” value in data set [1] (7 μM peptide, 1 ug/ml CpG-ODN) is on record as 53%; in data set [1] (11 μM peptide, 1 ug/ml CpG-ODN), 70%. Further, the “Percent Inhibition of TNF-α secretion” value is recorded as 70% in data set [1] (setting [7]) and 92% in data set [1] (setting [8]).
As for “FITC-labeled P13-R^9: FITC (Fluorescein isothiocyanate) labeled peptide P13-R^9 (SEQ ID NO: 378) (DIVKLTVYDCIRRRRRRRRR; also: FITC label)”, the “crossing the tympanic membrane” value in data set [3] is “crosses the tympanic membrane and associates with cells in middle ear fluid”.
As to AIVKLTVYDCIRRRRRRRRR [T3-R^9], the “Percent Inhibition of TNF-α secretion” value turned out to be 33% in data set [2] (7.4 uM peptide); 65% in data set [2] (11.1 uM peptide); 77% in data set [2] (22.2 uM peptide); 85% in data set [1] (setting [4]); 92% in data set [1] (setting [5]); 99% in data set [1] (setting [6]). Besides, the “activity vis-à-vis P13 (inhibition of TNF-α after stimulation of RAW264.7 cells with CpG)” value in data set [1] is recorded as “superior activity”.
For AIVKLTVYACIRRRRRRRRR [T51-R^9], the “Percent Inhibition of TNF-α secretion” value is 94% in data set [1] (setting [4]), 98% in data set [1] (setting [5]) and 99.7% in data set [1] (setting [6]). Moreover, the “activity vis-à-vis P13 (inhibition of TNF-α after stimulation of RAW264.7 cells with CpG)” value in data set [1] is given as “superior activity”.
